Measured values: the NIST ThermoML archive (doi:10.1021/je400491p)

Conditions: 101.33 kPa, Liquid; for viscosity: Capillary tube (Ostwald / Ubbelohde) method; for mass density: Pycnometric method

OCCO [1,2-ethanediol]
Conditions | mass density [kg/m3] | viscosity [mPa·s]
313.15 K | 1098.9 | 9.309
323.15 K | 1091.7 | 6.818
333.15 K | 1084.2 | 5.027
343.15 K | 1078.1 | 3.915
